# Results: patent US10434181B2, “Oligomer-containing benzamide-based compounds” (Nektar Therapeutics, priority 2012, dated 2019)
# “And” between values parts separate entries of the source, which are not always exact repeats. Equal values may be shown once. Read-outs that look alike come from different tables or passages of the source. Marks after values point to notes of the source that are not given here.
# What was measured:
# dopamine 2L receptors [1] = biological target: T1, dopamine 2L receptors (Homo sapiens, UniProt P14416); conditions: read-out: expected IC50; expected value; cited from earlier work
# T1 sequence (P14416 whole entry): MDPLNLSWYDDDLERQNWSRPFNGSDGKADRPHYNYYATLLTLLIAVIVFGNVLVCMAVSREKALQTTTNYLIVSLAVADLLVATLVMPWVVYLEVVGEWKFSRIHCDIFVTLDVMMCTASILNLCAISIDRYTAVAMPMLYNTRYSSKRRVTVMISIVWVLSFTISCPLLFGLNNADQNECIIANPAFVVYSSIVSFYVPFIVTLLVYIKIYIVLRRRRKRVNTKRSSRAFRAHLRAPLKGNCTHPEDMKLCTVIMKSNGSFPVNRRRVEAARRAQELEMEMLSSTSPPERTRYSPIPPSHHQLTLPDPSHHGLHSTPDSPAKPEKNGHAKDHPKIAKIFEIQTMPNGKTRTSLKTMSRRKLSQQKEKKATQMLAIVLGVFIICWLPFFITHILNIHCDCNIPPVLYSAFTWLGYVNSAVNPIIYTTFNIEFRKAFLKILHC
# [2] = test system: Sprague-Dawley rat hepatocytes; test: MetID determination in rat hepatocytes; assay type: in vitro ADME
# Protocol: (§1) Cryopreserved human and Sprague-Dawley rat hepatocytes were thawed in a 37° C. water bath. […] Samples were obtained from separate plates for each time point during the incubation. At each sampling time, the plates were removed from the incubator, quenched by adding 100 μL cold acetonitrile, and placed in an ice bath until centrifugation at 4,000 rpm for 30 minutes at 4° C. Supernatants were stored at or below −70° C. until LC-MS/MS analysis could be conducted. The liquid chromatography system used was Agilent 1100 Autosampler, Binary Pump, DAD and Column Enclosure. Tandem mass spectrometry was conducted using a Thermo DECA XP MAX Ion Trap Mass Spectrometer. The ion source was Electrospray (+) and the LC column used was a Varian, Polaris 5 C18-A (250×2.1 mm, 5 micron) column.
# (§2) Metabolic pathways of metoclopramide and conjugates were determined in rat and human hepatocytes. N-dealkylation was the major metabolic pathway for metoclopramide in rats, and metabolism in human hepatocytes was minimal. […] FIG. 2 and FIG. 3 show the metabolic pathway of for mPEG1-N-metoclopramide and mPEG4-N-metoclopramide, respectively. […] In this figure, different metabolites for each conjugate are denoted with the “M” and correspond to the designation provided in the figure for a given conjugate. For example, metabolite M1 for mPEG1-N-metoclopramide in Table 6 corresponds to M1 in FIG. 2, metabolite M2 for mPEG4-N-metoclopramide in Table 6 corresponds to M2 in FIG. 3 and metabolite M3 mPEG8-N-metoclopramide in Table 6 corresponds to M3 in FIG. 4.
# CYP2D6 = CYP2D6 (Homo sapiens, UniProt P10635); conditions: as reported in the literature; cited from earlier work
# Sequence of CYP2D6 (P10635 whole entry): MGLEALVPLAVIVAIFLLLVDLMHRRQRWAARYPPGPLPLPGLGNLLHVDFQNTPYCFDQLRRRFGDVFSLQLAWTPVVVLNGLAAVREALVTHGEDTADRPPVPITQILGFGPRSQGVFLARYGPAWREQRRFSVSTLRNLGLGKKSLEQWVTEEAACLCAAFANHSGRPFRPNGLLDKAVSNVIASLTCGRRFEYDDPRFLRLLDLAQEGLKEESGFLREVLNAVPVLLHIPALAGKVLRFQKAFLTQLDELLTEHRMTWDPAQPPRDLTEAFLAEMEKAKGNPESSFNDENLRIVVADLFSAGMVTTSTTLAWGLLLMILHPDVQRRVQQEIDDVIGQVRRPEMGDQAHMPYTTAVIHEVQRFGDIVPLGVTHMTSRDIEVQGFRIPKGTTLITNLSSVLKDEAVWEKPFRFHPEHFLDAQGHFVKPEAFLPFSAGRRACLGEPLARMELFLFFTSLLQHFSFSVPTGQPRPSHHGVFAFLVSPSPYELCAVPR
# [3] = Chemical stability in potassium phosphate buffer; assay type: physicochemical; conditions: 100 mM potassium phosphate buffer, pH 7.4 at 37° C. for up to 30 minutes
# Protocol: FIG. 5B is a plot of the results of a chemical stability study of test articles in a 100 mM potassium phosphate buffer, pH 7.4 at 37° C. for up to thirty minutes.
# dopamine 2S receptor = biological target: T2, dopamine 2S receptor (Homo sapiens, UniProt P14416); test: β-Arrestin functional assay (dopamine), antagonist mode; assay type: cell-based; conditions: β-arrestin interaction, CHO-K1 cells expressing D2S, dopamine at EC80 (400 nM)
# T2 construct: host or cells: CHO-K1 (PathHunter eXpress β-arrestin cells)
# T2 sequence (P14416 1-414 isoform P14416-2): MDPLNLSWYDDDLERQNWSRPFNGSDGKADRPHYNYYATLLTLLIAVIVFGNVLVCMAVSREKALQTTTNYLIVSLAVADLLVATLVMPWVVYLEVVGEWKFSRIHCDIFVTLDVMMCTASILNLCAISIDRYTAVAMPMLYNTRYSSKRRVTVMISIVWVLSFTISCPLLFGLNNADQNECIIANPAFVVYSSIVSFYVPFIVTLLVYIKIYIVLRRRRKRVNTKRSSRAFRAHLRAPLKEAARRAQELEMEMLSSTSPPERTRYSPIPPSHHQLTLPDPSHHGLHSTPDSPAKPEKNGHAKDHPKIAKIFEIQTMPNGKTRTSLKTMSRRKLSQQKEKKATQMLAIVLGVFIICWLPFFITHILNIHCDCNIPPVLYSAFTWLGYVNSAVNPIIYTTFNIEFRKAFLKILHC
# dopamine 2L receptors [4] = biological target: T1, dopamine 2L receptors; test: Competition binding assay (dopamine 2L receptors), [3H]methylspiperone; design: expressed in transfected cells
# Protocol: (§3) [^3H] Methylspiperone was diluted in assay buffer to a final concentration of 0.4 nM. To start the assay, 1 uL of compound was added into 96-well v-bottom plates, followed by the addition of 50 uL of diluted membrane preparation, then finally diluted [^3H] Methylspiperone was added. The assay mixture was incubated for 60 minutes at room temperature with shaking. Following incubation, bound [^3H] methylspiperone on 5% PEI soaked GF/B filter plates using a Filtermate Harvester (Perkin Elmer) were then washed four times with ice cold wash buffer (50 mM Tris-HCl, pH 7.5). Filter plates were air dried for two minutes, and then 50 uL of MicroScint-20 was added into each well. Radioactivity counts were quantified using a Top Count plate reader (Perkin Elmer). Data was analyzed using one-site binding competition non-linear regression curve fitting on GraphPad Prism.
# [5] = Rat PK (intravenous and oral)
# Protocol: (§4) Rat pharmacokinetic (“PK”) characterization was conducted in male Sprague Dawley Rats (Rattus Norvegicus) weighing between 210-260 gm (Charles River Laboratories (Hollister, Calif.)). Rats were fed a standard diet and water was available ad-libidum at all times. […] Animals were dosed either orally (2.5 mg/Kg) via gavage or intravenously (0.5 mg/kg) via the jugular vein cannula. Blood samples (˜0.15 mL) were collected through carotid artery cannula at respective time points and transferred immediately into K2EDTA-coated tubes (that contain quenching media-acetic acid, PMSF and Dichlorvos) and placed on ice. The samples were centrifuged within thirty minutes after collection at 10,000 RPM for five minutes and the resulting plasma was separated. Plasma were transferred into microfuge tubes and placed on dry ice immediately. The plasma samples were stored at approximately −70° C. until shipped on dry ice for Bioanalysis by LC/MS/MS. Urine samples were collected using metabolic cages into a tube containing citric acid (4 mg for 0-4 and 4-8 hr interval and 16 mg for 8-24 hr interval) on wet ice at the intervals specified in the study design. After the completion of urine collection at each interval, each cage was rinsed with 2 mL of deionized water (1 mL each time). The rinse was collected in the separate labeled container (containing 2 mg of citric acid) as the urine. Following this rinse another 2 ml rinse was carried out with ethanol (1 ml each time). The rinse was also collected in the separate labeled container as the urine. Samples were stored frozen at −70° C. until bioanalysis by LC/MS/MS was performed.
# (§5) Pharmacokinetic parameters were determined by non-compartmental analysis using Phoenix®WinNonlin® (Version 6.3; Pharsight Corp., Mountain View, Calif.). Nominal doses and sampling times were used for the analysis. Concentrations reported as BLQ were treated as missing unless they were pre-dose; then they were set to zero. Maximum plasma concentration (Cmax) and time of observed maximum plasma analyte concentration (Tmax) were generated by Phoenix®WinNonlin®, directly from the inputed dataset. […] Area under the plasma concentration-time curve from time 0 to infinity (AUCinf) was calculated as the sum of AUClast and the last observed concentration divided by k. Total plasma clearance (CL) was calculated as Dose/AUCinf. Apparent volume of distribution at steady state (Vss) was calculated as MRTinf*CL, where MRT is the mean residence time.
# in vivo = conditions: male, Sprague Dawley, rat, plasma
# Protocol: as §4, §5
# human hepatocytes = test: MetID determination in human hepatocytes; assay type: in vitro ADME
# Protocol: as §1, §2
# [6] = biological target: T3, 5HT3A receptors (serotonin 3A receptors) (Homo sapiens, UniProt P46098); conditions: value in brackets after the IC50; cited from earlier work
# T3 construct: expressed in transfected cells
# T3 sequence (P46098 24-478): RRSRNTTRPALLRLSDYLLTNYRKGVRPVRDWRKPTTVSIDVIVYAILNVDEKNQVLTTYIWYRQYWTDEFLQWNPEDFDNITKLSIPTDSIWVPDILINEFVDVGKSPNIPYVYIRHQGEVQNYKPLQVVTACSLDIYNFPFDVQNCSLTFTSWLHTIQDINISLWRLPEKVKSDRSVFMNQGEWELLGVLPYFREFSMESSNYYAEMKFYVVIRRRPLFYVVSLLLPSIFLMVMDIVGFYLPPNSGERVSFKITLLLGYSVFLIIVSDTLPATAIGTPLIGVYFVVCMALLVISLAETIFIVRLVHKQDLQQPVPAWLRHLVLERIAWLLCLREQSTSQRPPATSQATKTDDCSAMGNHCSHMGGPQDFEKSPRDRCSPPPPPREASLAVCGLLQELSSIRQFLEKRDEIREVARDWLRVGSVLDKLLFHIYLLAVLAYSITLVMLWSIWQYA
# [7] = biological target: T3, 5HT3A receptors (serotonin 3A receptors); test: Competition binding assay (serotonin 3A receptors), [3H]GR65630; conditions: [3H]GR65630 competition, HEK 293 membranes expressing 5HT3A
# Protocol: as §3, with “Methylspiperone was diluted in assay buffer to a final concentration of 0.4 nM.” left out, “Methylspiperone was added.” left out, “methylspiperone on 5% PEI soaked GF/B filter plates using a Filtermate Harvester (Perkin Elmer) were then washed four times with ice cold wash buffer (50 mM Tris-HCl, pH 7.5).” left out
# [8] = incubation of 10 μM metoclopramide, parent and its metabolites M (FIG. 1)
smiles,measurement,setting,value
"CCN(CC)CCNC(=O)c1cc(Cl)c(N)cc1OC [Metoclopramide, N-(2-diethylaminoethyl)-2-methoxy-4-amino-5-chlorobenzamide, reference compound]",IC50,dopamine 2L receptors [1],540 nM
same,"% of Total Metabolism, Rat Hep 1 hr",[2]; [8],87%
same,"% of Total Metabolism, Rat Hep 4 hr",[2]; [8],61%
same,major metabolic pathway,[2]; rat hepatocytes,N-dealkylation
same,time-dependent inhibition of CYP2D6 (literature / known),CYP2D6,CYP2D6 time-dependent inhibitor
same,chemical stability,[3],chemically stable
same,IC50,dopamine 2S receptor,82.1 nM and 82.2 nM
same,IC50,"dopamine 2L receptors [4]; [3H]methylspiperone competition, HEK 293 membranes expressing D2L, read-out: IC50",84.2 nM
same,IC50,"dopamine 2L receptors [4]; preliminary run that was not quality controlled, read-out: IC50, preliminary run",932 nM
same,CLRen,"[5]; intravenous, 0.5 mg/kg",7.2* mL/min/kg
same,Clast,"[5]; oral gavage, 2.5 mg/Kg",8.07 ng/mL
same,Tlast,"[5]; oral gavage, 2.5 mg/Kg",16 h
same,AUC(0-inf),"in vivo; iv, 0.5 mg/kg",66.8 ng·h/mL
same,MRT inf,"in vivo; iv, 0.5 mg/kg",32.4 min
same,Vd,"in vivo; iv, 0.5 mg/kg",4.12 L/kg
same,clearance,"in vivo; iv, 0.5 mg/kg",126 mL/min/kg
same,half-life,"in vivo; iv, 0.5 mg/kg",30 min
same,AUC,"in vivo; po, 2.5 mg/kg",261 ng·h/mL
same,CL/F,"in vivo; po, 2.5 mg/kg",131 mL/min/kg
same,Cmax,"in vivo; po, 2.5 mg/kg",166 ng/mL
same,Tmax,"in vivo; po, 2.5 mg/kg",22.8 min
same,extent of metabolism in human hepatocytes,human hepatocytes; human hepatocytes,minimal
same,"% of Total Metabolism, Human Hep 1 hr",human hepatocytes; [8],96.8%
same,"% of Total Metabolism, Human Hep 4 hr",human hepatocytes; [8],97.5%
same,pKi,[6],5.9-6.4
same,IC50,[7]; IC50 [M],6.86e-06 M
same,IC50,[7]; IC50 [nM],6.86e-06 M
